Assay results from patent publication US11827646B2, “Compounds for treating spinal muscular atrophy” (Hoffmann-La Roche Inc., priority 2014, dated 2023).

What was measured:
[1] = test system: full length SMN2 minigene mRNA (HEK293H cells stably transfected with SMN2-A minigene); test: SMN2 minigene mRNA splicing RT-qPCR assay in cultured cells; type: cell-based; settings: Homo sapiens, HEK293-H, 24 hours, 7-point concentration curve, 1.5-fold increase relative to vehicle, read-out: EC1.5x minigene (EC1.5x concentration for production of full length SMN2 minigene mRNA)
Text: The term “EC1.5x concentration for production of full length SMN2 minigene mRNA” (or “EC1.5x minigene”) is defined as that concentration of test compound that 1 s effective m increasing the amount of full length SMN2 minigene mRNA to a level 1.5-fold greater relative to that in vehicle-treated cells.
The reverse transcription-quantitative PCR-based (RT-qPCR) assay is used to quantify the level of the full length SMN2 minigene (referred to herein by the term “FL SMN2mini”) mRNA containing SMN2 exon 7 in a HEK293H cell line stably transfected with said minigene and treated with a test compound. Materials used and respective sources are listed below in Table 1.
The SMN2-A minigene construct was prepared as described in International Patent Application WO2009/151546A1 page 145 paragraph [00400] to page 147 paragraph [00412](incl. FIG. 1 and FIG. 3 therein).
HEK293H cells stably transfected with the SMN2-A minigene construct (10,000 cells/well) are seeded in 200 μL of cell culture medium (DMEM plus 10% FBS, with 200 μg/mL hygromycin) in 96-well flat-bottom plates and the plate is immediately swirled to ensure proper dispersal of cells and the formation of an even monolayer of cells. Cells are allowed to attach for 6 hours. Test compounds are serially diluted 3.16-fold in 100% DMSO to generate a 7-point concentration curve. A solution of test compound (1 μL, 200× in DMSO) is added to each cell-containing well and the plate is incubated for 24 hours in a cell culture incubator (37° C., 5% CO2, 100% relative humidity). 2 replicates are prepared for each test compound concentration. The cells are then lysed in the Cells-To-Ct lysis buffer and the lysate is stored at −80° C.
Full length SMN2-A minigene and GAPDH mRNA are quantified using the primers and probes referenced in Table 2. Primer SMN Forward A (SEQ ID NO.1) hybridizes to a nucleotide sequence in exon 7 (nucleotide 22 to nucleotide 40), primer SMN Reverse A (SEQ ID NO.2) hybridizes to a nucleotide sequence in the coding sequence of Firefly luciferase, SMN Probe A (SEQ ID NO.3) hybridizes to a nucleotide sequence in exon 7 (nucleotide 50 to nucleotide 54) and exon 8 (nucleotide 1 to nucleotide 21). The combination of these three oligonucleotides detects only SMN1 or SMN2 minigenes (RT-qPCR) and will not detect endogenous SMN1 or SMN2 genes.
The SMN forward and reverse primers are used at final concentrations of 0.4 μM. The SMN probe is used at a final concentration of 0.15 μM. The GAPDH primers are used at final concentrations of 0.2 μM and the probe at 0.15 μM.
The SMN2-minigene GAPDH mix (15 μL total volume) is prepared by combining 7.5 μL of 2×RT-PCR buffer, 0.4 μL of 25×RT-PCR enzyme mix, 0.75 μL of 20×GAPDH primer-probe mix, 4.0075 μL of water, 2 μL of 10-fold diluted cell lysate, 0.06 μL of 100 µM SMN forward primer, 0.06 μL of 100 μM SMN reverse primer, and 0.225 μL of 100 μM SMN probe.
PCR is carried out at the following temperatures for the indicated time: Step 1: 48° C. (15 min); Step 2: 95° C. (10 min); Step 3: 95° C. (15 sec); Step 4: 60° C. (1 min); then repeat Steps 3 and 4 for a total of 40 cycles.
Each reaction mixture contains both SMN2-A minigene and GAPDH primers/probe sets (multiplex design), allowing simultaneous measurement of the levels of two transcripts.
The increase in the abundance of the FL SMN2mini mRNA relative to that in cells treated with vehicle control is determined from real-time PCR data using a modified ΔΔCt method (as described in Livak and Schmittgen, Methods, 2001, 25:402-8). The amplification efficiency E is calculated from the slope of the amplification curve for FL SMN2mini and GAPDH individually. The abundance of FL SMN2mini and GAPDH mRNA are then calculated as (1+E)^−Ct, where Ct is the threshold value for each amplicon. The abundance of FL SMN2mini mRNA is normalized to GAPDH mRNA abundance. […]

[2] = test system: SMN protein in SMA patient fibroblast cells (GM03813); test: SMN protein assay in cultured cells (SMN HTRF); type: cell-based; settings: Homo sapiens, SMA Type 1 patient fibroblasts, 48 hours; for EC (1.5-fold): 7-point concentration curve, 1.5 times SMN protein vs vehicle, read-out: EC1.5x SMN protein (EC1.5x concentration for SMN protein expression); for maximal fold induction: fold increase relative to vehicle control, read-out: max. fold increase of SMN protein
Procedure, shortened: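 SMA patient fibroblasts (5,000/well, DMEM-10% FBS) treated 48 h at 37° C with 7-point, 3.16-fold dilution series, in triplicate; lysates read by anti-SMN HTRF (665/620 nm ratio). Fold SMN over vehicle derived from blank-corrected ΔF; EC1.5x is the concentration giving 1.5-fold SMN versus vehicle.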

Row | Structure (SMILES) | EC (1.5-fold) [1] [µM] | EC (1.5-fold) [2] [µM] | maximal fold induction [2]
1 | Cc1cn2nc(-c3cc(=O)n4cc(N5CC[C@H](N6CCCC6)C5)ccc4n3)cc(C)c2n1 [Example 30, 2-(2,8-dimethylimidazo[1,2-b]pyridazin-6-yl)-7-[(3S)-3-pyrrolidin-1-ylpyrrolidin-1-yl]pyrido[1,2-a]pyrimidin-4-one] | 0.003 | 0.0136 | 1.84
2 | Cc1cn2nc(-c3cc(=O)n4cc(N5CC[C@H](N6CCCC6)C5)ccc4n3)ccc2n1 [Example 31, 2-(2-methylimidazo[1,2-b]pyridazin-6-yl)-7-[(3S)-3-pyrrolidin-1-ylpyrrolidin-1-yl]pyrido[1,2-a]pyrimidin-4-one] | 0.0067 | 0.0277 | 1.65
3 | Cc1cn2nc(-c3cc(=O)n4cc(N5C[C@H](C)N[C@@H](C)C5)ccc4n3)ccc2n1 [Example 32, 7-[(3S,5S)-3,5-dimethylpiperazin-1-yl]-2-(2-methylimidazo[1,2-b]pyridazin-6-yl)pyrido[1,2-a]pyrimidin-4-one] | 0.0016 | 0.004 | 1.88
4 | Cc1cn2nc(-c3cc(=O)n4cc(N5CCN[C@@H](C)C5)cc(C)c4n3)ccc2n1 [Example 33, 9-methyl-2-(2-methylimidazo[1,2-b]pyridazin-6-yl)-7-[(3S)-3-methylpiperazin-1-yl]pyrido[1,2-a]pyrimidin-4-one] | 0.0005 | 0.004 | 1.82
5 | Cc1cn2nc(-c3cc(=O)n4cc(N5CCN[C@H](C)C5)cc(C)c4n3)ccc2n1 [Example 34, 9-methyl-2-(2-methylimidazo[1,2-b]pyridazin-6-yl)-7-[(3R)-3-methylpiperazin-1-yl]pyrido[1,2-a]pyrimidin-4-one] | 0.0009 | 0.0044 | 1.89
6 | Cc1cn2nc(-c3cc(=O)n4cc(N5C[C@@H](C)N[C@@H](C)C5)cc(C)c4n3)ccc2n1 [Example 35, 7-[(3R,5S)-3,5-dimethylpiperazin-1-yl]-9-methyl-2-(2-methylimidazo[1,2-b]pyridazin-6-yl)pyrido[1,2-a]pyrimidin-4-one] | 0.0047 | 0.0195 | 1.79
7 | Cc1cn2nc(-c3cc(=O)n4cc(N5CCNC(C)(C)C5)cc(C)c4n3)ccc2n1 [Example 36, 7-(3,3-dimethylpiperazin-1-yl)-9-methyl-2-(2-methylimidazo[1,2-b]pyridazin-6-yl)pyrido[1,2-a]pyrimidin-4-one] | 0.005 | 0.0344 | 1.77
8 | Cc1cn2nc(-c3cc(=O)n4cc(N5CCNC6(CC6)C5)cc(C)c4n3)ccc2n1 [Example 37, 7-(4,7-diazaspiro[2.5]octan-7-yl)-9-methyl-2-(2-methylimidazo[1,2-b]pyridazin-6-yl)pyrido[1,2-a]pyrimidin-4-one] | 0.0044 | 0.045 | 1.87
9 | Cc1cn2nc(-c3cc(=O)n4cc(N5C[C@H](C)N[C@@H](C)C5)cc(C)c4n3)ccc2n1 [Example 38, 7-[(3S,5S)-3,5-dimethylpiperazin-1-yl]-9-methyl-2-(2-methylimidazo[1,2-b]pyridazin-6-yl)pyrido[1,2-a]pyrimidin-4-one] | 0.0003 | 0.0031 | 1.85
10 | CC[C@@H]1CN(c2ccc3nc(-c4ccc5nc(C)cn5n4)cc(=O)n3c2)CCN1 [Example 39, 7-[(3R)-3-ethylpiperazin-1-yl]-2-(2-methylimidazo[1,2-b]pyridazin-6-yl)pyrido[1,2-a]pyrimidin-4-one] | 0.0009 | 0.0158 | 1.81
